These results are taken from US20110151534A1, “[…] ORGANIC COMPOUNDS USING R[…] […] HALIDE TRANSFERASE” (priority 2007, published 2011).

What is called Km is the concentration of substrate that gives half-maximal velocity.

In data set [1] the target is methyl halide transferase (Batis maritima, UniProt Q9ZSZ7). Conditions: halide ion as substrate; Attieh et al. 1995, Ni and Hager 1999; cited from earlier work.
Another data set deals with S. cerevisiae W303a. The experiment in a line: Methyl iodide toxicity assay in yeast. The class given is cell-based, Saccharomyces cerevisiae. The following applies: OD600 at 24 hours of growth, commercially available CH3I added. The text has this: (§1) FIG. 11A-D: Methyl iodide production in recombinant S. cerevisiae. FIG. 11A. CH3I production pathway. The B. maritima MHT is expressed with a N-terminal vacuole targeting tag. The […] MHT methylates iodide ions using SAM as a methyl donor. FIG. 11B, CH3I measured in culture headspace over time. Activity on glucose-grown cells is shown. FIG. 11C, CH3I yields in grams per liter of culture per day. Values for the culturable red algae E. muricata are taken from the literature. Yields from B. maritima MHT-expressing E. coli and S. cerevisiae are calculated by comparison to standard curves. FIG. 11D, CH3I toxicity in yeast. Exponential phase cultures were diluted to an OD600 of 0.05 and commercially available CH3I was added. OD600 was measured at 24 hours of growth. The W303a lab strain is shown in filled boxes, the DNA methylation-sensitive RAD50Δ mutant is shown in open boxes.
(§2) Individual colonies were inoculated in YP media with 2% glucose and grown overnight. Cultures were diluted to an OD600 of 0.05 and methyl iodide was added to the specified amount. […] OD600 was measured by spectrometry with YP media used as a blank. Each data point was performed in triplicate. The RAD50Δ mutant was obtained from the Saccharomyces Genome Deletion Project (Invitrogen).

For the next data set, the system named is RAD50Δ mutant. It is filed as cell-based, Saccharomyces cerevisiae. Conditions: RAD50Δ mutant compared with W303a.
From the text: as §1, §2

Some results are limits rather than exact numbers.

methyl halide transferase, sequence (Q9ZSZ7 1-230): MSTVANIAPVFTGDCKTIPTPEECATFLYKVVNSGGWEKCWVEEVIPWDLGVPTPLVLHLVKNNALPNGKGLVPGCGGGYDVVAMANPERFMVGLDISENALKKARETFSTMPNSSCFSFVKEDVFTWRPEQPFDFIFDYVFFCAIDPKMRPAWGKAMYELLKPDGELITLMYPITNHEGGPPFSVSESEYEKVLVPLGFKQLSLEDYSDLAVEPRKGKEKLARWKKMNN

As to `I` [I^−, iodide], the Km in data set [1] was 8.5 mM. As for `[Br-].[K+]` [Br^−, bromide], the Km in data set [1] is 18.5 mM. In the case of `CI` [methyl iodide], in the data set with S. cerevisiae W303a, the “level up to which yeast were resistant to deleterious methylating effects of methyl iodide” value was more than 5 g/L. Moreover, in the data set with RAD50Δ mutant, the “sensitivity to methyl iodide” value is listed as “increased sensitivity”.
